The results in this text go back to ChEMBL document CHEMBL4342498, “Design and Discovery of an Orally Efficacious Spiroindolinone-Based Tankyrase Inhibitor for the Treatment of Colon Cancer” (J Med Chem, 2020).

Usually efflux ratio stands for a quotient of directional permeabilities that is used to spot active efflux. Usually IC50 stands for the concentration needed to halve the response being measured. The solubility is how much of the substance goes into solution per volume. A lower solubility goes with little dissolved substance. By GI50 is commonly meant the concentration giving 50% growth inhibition.

SMILES strings stand for the structures. ≈ marks a conversion by molar mass, not a printed value.

The first data set deals with MDR1. In words: Efflux ratio of permeability across basolateral to apical side over apical to basolateral side in MDCK2-MDR1 cells. The following applies: dog, MDCK-MDR1. The class given is ADME, cell-based, Canis lupus familiaris.
For the compound `CN1CCCc2c1nc(N1CCC3(CC1)C(=O)N(CC(=O)O)c1cc(F)cc(F)c13)[nH]c2=O`, the efflux ratio worked out at 0.5.
Same read-out and setting: the result for `CN1CCCc2c1nc(N1CCC3(CC1)C(=O)N(C)c1cc(N4CCCCC4)cc(F)c13)[nH]c2=O` reads 2.3.

For a further data set, the target named is T1, Poly [ADP-ribose] polymerase tankyrase-1 (Homo sapiens, UniProt O95271).
T1 sequence (O95271 whole entry): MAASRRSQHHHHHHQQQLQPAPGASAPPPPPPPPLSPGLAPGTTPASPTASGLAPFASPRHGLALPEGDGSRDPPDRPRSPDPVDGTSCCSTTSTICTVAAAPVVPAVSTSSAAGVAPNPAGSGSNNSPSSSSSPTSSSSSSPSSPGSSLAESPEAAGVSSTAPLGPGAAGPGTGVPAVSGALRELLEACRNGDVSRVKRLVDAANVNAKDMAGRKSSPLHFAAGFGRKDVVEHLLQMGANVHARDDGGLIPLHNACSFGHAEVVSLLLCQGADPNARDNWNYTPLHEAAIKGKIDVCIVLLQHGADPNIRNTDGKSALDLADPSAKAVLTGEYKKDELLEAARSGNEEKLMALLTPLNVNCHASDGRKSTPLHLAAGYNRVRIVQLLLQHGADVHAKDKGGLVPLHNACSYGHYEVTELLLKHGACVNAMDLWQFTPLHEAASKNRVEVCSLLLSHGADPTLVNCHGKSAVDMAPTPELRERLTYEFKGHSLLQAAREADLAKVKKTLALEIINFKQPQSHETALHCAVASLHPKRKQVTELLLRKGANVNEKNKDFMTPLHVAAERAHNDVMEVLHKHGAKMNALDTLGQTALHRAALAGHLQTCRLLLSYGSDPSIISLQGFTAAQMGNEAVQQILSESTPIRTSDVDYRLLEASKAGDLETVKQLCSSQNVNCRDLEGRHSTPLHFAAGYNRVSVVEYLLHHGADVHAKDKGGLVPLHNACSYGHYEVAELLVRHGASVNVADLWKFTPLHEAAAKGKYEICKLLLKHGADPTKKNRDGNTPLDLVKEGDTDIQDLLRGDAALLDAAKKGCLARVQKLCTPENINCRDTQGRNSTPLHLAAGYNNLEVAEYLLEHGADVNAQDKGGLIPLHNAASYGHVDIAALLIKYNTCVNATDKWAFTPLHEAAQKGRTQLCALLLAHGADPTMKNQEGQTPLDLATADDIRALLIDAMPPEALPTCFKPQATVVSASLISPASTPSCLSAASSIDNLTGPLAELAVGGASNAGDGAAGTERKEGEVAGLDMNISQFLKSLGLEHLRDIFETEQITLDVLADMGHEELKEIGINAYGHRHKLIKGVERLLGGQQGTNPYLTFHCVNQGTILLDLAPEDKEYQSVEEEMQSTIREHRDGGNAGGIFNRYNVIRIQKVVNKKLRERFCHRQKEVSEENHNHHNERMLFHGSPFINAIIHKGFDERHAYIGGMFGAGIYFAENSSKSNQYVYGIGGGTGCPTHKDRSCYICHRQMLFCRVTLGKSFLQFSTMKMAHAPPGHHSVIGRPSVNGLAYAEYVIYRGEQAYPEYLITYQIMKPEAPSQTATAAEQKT
Assay: not given
Conditions: not given
Take `CN1CCCc2c1nc(N1CCC3(CC1)C(=O)N(CC(=O)O)c1cc(F)cc(F)c13)[nH]c2=O`: the half-inhibitory concentration (IC50) came out at 28.5 nM.
On to `CN1CCCc2c1nc(N1CCC3(CC1)C(=O)N(C)c1cc(N4CCCCC4)cc(F)c13)[nH]c2=O`, for which the half-maximal inhibitory concentration (IC50) is 21.3 nM.

Test system in the next data set: not listed separately
Description: Net efflux ratio of permeability across basolateral to apical side over apical to basolateral side in MDCK2-MDR1 cells to MDCK2 cells. The following applies: dog, mdck. Type of data set: ADME, cell-based, Canis lupus familiaris.
`CN1CCCc2c1nc(N1CCC3(CC1)C(=O)N(CC(=O)O)c1cc(F)cc(F)c13)[nH]c2=O`: the Ratio is 1.3.
On to `CN1CCCc2c1nc(N1CCC3(CC1)C(=O)N(C)c1cc(N4CCCCC4)cc(F)c13)[nH]c2=O`, for which the Ratio is listed as 2.3.

The next data set has as its target T2, Tankyrase 1/2 (Homo sapiens, UniProt Q9H2K2+O95271).
T2 sequence (Q9H2K2 whole entry): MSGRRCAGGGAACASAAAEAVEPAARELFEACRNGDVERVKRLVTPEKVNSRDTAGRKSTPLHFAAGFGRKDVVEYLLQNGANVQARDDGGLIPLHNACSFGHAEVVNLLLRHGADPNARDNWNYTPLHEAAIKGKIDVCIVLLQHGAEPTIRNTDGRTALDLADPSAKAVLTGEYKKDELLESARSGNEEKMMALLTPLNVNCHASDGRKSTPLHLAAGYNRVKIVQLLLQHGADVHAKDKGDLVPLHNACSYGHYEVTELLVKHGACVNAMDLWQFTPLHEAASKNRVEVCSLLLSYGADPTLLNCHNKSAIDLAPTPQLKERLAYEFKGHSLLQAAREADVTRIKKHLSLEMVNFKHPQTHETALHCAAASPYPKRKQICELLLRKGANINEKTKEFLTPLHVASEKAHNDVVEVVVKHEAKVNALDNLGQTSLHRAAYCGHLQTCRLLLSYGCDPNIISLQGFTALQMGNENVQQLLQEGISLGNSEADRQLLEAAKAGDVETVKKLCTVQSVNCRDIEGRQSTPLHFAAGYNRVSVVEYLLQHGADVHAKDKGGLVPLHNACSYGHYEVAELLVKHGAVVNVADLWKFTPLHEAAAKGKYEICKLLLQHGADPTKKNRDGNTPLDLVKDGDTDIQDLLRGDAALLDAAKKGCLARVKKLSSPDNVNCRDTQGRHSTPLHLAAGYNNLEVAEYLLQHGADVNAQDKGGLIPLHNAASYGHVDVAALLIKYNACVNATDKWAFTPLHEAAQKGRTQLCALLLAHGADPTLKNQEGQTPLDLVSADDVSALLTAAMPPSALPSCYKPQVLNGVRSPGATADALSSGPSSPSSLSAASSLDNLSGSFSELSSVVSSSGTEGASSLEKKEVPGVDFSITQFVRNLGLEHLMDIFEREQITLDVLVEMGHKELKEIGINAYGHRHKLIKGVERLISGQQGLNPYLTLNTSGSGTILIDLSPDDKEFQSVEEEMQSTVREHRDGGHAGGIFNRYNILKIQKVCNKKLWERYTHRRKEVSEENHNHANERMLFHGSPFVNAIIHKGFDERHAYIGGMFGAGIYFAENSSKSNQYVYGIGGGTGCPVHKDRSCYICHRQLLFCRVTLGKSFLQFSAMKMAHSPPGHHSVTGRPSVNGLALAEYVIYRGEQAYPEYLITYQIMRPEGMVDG
T2 sequence (O95271 whole entry): T1 sequence (O95271 whole entry)
Assay: not given
Conditions: not given
As for `CN1CCCc2c1nc(N1CCC3(CC1)C(=O)N(CC(=O)O)c1cc(F)cc(F)c13)[nH]c2=O`, the half-maximal inhibitory concentration (IC50) is listed as 1185 nM.
On the same count and under the same terms, the result for `CN1CCCc2c1nc(N1CCC3(CC1)C(=O)N(C)c1cc(N4CCCCC4)cc(F)c13)[nH]c2=O` reads 6.4 nM.

The next data set has as its target T2, Tankyrase 1/2.
Assay: not given
The following applies: hek293.
For the compound `CN1CCCc2c1nc(N1CCC3(CC1)C(=O)N(CC(=O)O)c1cc(F)cc(F)c13)[nH]c2=O`, the concentration for half-maximal inhibition (IC50) is 221 nM.
On the same count and under the same terms, the result for `CN1CCCc2c1nc(N1CCC3(CC1)C(=O)N(C)c1cc(N4CCCCC4)cc(F)c13)[nH]c2=O` reads 0.7 nM.

Another data set has as its target T3, Poly [ADP-ribose] polymerase tankyrase-2 (Homo sapiens, UniProt Q9H2K2).
T3 sequence (Q9H2K2 whole entry): T2 sequence (Q9H2K2 whole entry)
In words: Inhibition of recombinant human N-terminal TEV cleavage site-fused/FLAG-poly his-tagged TNKS2 ARC5-SAM-PARP domain (613 to 1166 residues) expressed in Escherichia coli assessed as reduction in auto-PARylation preincubated for 10 mins followed by biotinylated-NAD+ addition and measured after 45 mins by ELISA.
Conditions: not given
Background: ELISA stands for enzyme-linked immunosorbent assay.
With `CN1CCCc2c1nc(N1CCC3(CC1)C(=O)N(CC(=O)O)c1cc(F)cc(F)c13)[nH]c2=O`, the IC50 was determined as 29.8 nM.
The same measure, in the same setting: the result for `CN1CCCc2c1nc(N1CCC3(CC1)C(=O)N(C)c1cc(N4CCCCC4)cc(F)c13)[nH]c2=O` reads 49.1 nM.

Test system in the next data set: not listed separately
Description: Stability in mouse liver microsomes assessed as parent compound remaining at 1 uM measured after 60 mins in presence of NADPH by LC-MS/MS analysis. Type of data set: ADME, Microsome. The following applies: read-out: Stability.
On to `CN1CCCc2c1nc(N1CCC3(CC1)C(=O)N(CC(=O)O)c1cc(F)cc(F)c13)[nH]c2=O`, for which the remaining at 1 h, 1 µM came out at 100%.
The same measure, in the same setting: in the case of `CN1CCCc2c1nc(N1CCC3(CC1)C(=O)N(C)c1cc(N4CCCCC4)cc(F)c13)[nH]c2=O` it was 10.5%.

Test system in the next data set: not listed separately
In words: Stability in human liver microsomes assessed as parent compound remaining at 1 uM measured after 60 mins in presence of NADPH by LC-MS/MS analysis. The class given is ADME, Microsome. The following applies: read-out: Stability.
As to `CN1CCCc2c1nc(N1CCC3(CC1)C(=O)N(CC(=O)O)c1cc(F)cc(F)c13)[nH]c2=O`, the remaining at 1 h, 1 µM is 100%.
The same measure, in the same setting: the result for `CN1CCCc2c1nc(N1CCC3(CC1)C(=O)N(C)c1cc(N4CCCCC4)cc(F)c13)[nH]c2=O` reads 1.5%.

Test system in the next data set: not listed separately
In words: physchem. The following applies: phosphate buffered saline, pH 7.4.
The compound `CN1CCCc2c1nc(N1CCC3(CC1)C(=O)N(CC(=O)O)c1cc(F)cc(F)c13)[nH]c2=O` gave a solubility at 1 h, 200 µM of 92.1 µg/mL (≈ 200 µM).
On the same count and under the same terms, the result for `CN1CCCc2c1nc(N1CCC3(CC1)C(=O)N(C)c1cc(N4CCCCC4)cc(F)c13)[nH]c2=O` reads 5 µg/mL (≈ 10.4 µM).

The subject of another data set is COLO 320DM. In words: Antiproliferative activity against human COLO320DM cells assessed as inhibition of cell growth measured after 4 days by CellTiter-Glo assay. The class given is functional. The following applies: 96 h.
In the case of `CN1CCCc2c1nc(N1CCC3(CC1)C(=O)N(CC(=O)O)c1cc(F)cc(F)c13)[nH]c2=O`, the GI50 worked out at 12600 nM.
Still for that read-out and setting: the result for `CN1CCCc2c1nc(N1CCC3(CC1)C(=O)N(C)c1cc(N4CCCCC4)cc(F)c13)[nH]c2=O` reads 300 nM.

Test system in another data set: not listed separately
In words: Efflux ratio of permeability across basolateral to apical side over apical to basolateral side in MDCK2 cells. Type of data set: ADME, cell-based, Canis lupus familiaris, MDCK-II. The following applies: dog, mdck.
Take `CN1CCCc2c1nc(N1CCC3(CC1)C(=O)N(CC(=O)O)c1cc(F)cc(F)c13)[nH]c2=O`: the efflux ratio stood at 0.4.
As to `CN1CCCc2c1nc(N1CCC3(CC1)C(=O)N(C)c1cc(N4CCCCC4)cc(F)c13)[nH]c2=O`, the efflux ratio came to 1.
